Columns and labels:
Carbonic anhydrase 1 = Carbonic anhydrase 1 (Homo sapiens, UniProt P00915)
Carbonic anhydrase 13 = Carbonic anhydrase 13 (Mus musculus, UniProt Q9D6N1)
Carbonic anhydrase 14 = Carbonic anhydrase 14 (Homo sapiens, UniProt Q9ULX7)
[1] = biological target: Carbonic anhydrase 5B, mitochondrial (Homo sapiens, UniProt Q9Y2D0)
Carbonic anhydrase 9 = Carbonic anhydrase 9 (Homo sapiens, UniProt Q16790)
Carbonic anhydrase 3 = Carbonic anhydrase 3 (Homo sapiens, UniProt P07451)
Carbonic anhydrase 6 = Carbonic anhydrase 6 (Homo sapiens, UniProt P23280)
Sequence of Carbonic anhydrase 6 (P23280 whole entry): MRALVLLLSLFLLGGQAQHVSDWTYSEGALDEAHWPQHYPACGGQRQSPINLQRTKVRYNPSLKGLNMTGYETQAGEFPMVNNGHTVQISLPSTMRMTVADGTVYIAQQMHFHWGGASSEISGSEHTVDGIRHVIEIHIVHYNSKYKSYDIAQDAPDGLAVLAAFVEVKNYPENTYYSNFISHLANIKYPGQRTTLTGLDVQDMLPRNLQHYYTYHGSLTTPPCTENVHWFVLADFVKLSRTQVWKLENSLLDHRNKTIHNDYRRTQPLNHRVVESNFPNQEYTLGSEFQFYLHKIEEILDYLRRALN

Carbonic anhydrase 4 = Carbonic anhydrase 4 (Homo sapiens, UniProt P22748)
Sequence of Carbonic anhydrase 4 (P22748 whole entry): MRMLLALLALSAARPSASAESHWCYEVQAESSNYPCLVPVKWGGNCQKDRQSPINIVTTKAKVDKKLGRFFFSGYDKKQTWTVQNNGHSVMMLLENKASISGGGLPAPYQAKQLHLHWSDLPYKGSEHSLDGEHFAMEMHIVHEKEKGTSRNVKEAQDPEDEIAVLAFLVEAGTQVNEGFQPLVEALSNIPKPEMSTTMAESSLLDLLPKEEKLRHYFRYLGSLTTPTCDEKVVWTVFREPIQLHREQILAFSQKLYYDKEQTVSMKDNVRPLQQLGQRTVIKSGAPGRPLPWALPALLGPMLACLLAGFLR

Carbonic anhydrase 12 = Carbonic anhydrase 12 (Homo sapiens, UniProt O43570)
Sequence of Carbonic anhydrase 12 (O43570 whole entry): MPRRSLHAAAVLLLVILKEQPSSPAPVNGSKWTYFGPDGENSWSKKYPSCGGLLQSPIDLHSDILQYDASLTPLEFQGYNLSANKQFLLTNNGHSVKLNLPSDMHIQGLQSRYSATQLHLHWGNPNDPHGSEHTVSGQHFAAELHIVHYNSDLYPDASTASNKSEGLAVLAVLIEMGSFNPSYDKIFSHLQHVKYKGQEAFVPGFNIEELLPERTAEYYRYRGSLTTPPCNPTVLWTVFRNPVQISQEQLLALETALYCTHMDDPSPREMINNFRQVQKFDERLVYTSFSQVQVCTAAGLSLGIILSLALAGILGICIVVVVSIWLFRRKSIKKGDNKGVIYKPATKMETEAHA

Sequence of Carbonic anhydrase 14 (Q9ULX7 whole entry): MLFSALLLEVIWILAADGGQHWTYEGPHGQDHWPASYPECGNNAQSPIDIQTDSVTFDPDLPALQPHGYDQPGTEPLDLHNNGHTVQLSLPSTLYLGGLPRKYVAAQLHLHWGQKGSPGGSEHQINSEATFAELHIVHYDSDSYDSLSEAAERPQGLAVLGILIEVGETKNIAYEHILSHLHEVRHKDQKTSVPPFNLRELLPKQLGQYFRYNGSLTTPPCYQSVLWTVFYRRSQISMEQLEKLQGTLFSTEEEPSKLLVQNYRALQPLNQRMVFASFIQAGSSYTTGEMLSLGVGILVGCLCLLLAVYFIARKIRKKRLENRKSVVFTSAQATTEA
Sequence of Carbonic anhydrase 13 (Q9D6N1 whole entry): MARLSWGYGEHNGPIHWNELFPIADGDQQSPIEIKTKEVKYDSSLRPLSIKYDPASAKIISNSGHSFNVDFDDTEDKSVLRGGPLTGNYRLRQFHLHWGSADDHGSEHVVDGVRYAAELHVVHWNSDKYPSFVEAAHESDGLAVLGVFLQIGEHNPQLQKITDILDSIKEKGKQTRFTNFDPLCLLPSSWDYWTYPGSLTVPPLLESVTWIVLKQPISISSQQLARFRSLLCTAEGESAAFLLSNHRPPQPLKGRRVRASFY
Sequence of Carbonic anhydrase 3 (P07451 whole entry): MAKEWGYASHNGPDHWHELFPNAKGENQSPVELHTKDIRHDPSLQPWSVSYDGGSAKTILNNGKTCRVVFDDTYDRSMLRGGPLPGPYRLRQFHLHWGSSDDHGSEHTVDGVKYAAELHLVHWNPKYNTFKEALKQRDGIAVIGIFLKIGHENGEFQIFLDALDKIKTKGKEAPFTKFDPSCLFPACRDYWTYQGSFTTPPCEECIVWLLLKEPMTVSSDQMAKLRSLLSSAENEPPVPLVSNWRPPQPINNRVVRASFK
Sequence of Carbonic anhydrase 1 (P00915 whole entry): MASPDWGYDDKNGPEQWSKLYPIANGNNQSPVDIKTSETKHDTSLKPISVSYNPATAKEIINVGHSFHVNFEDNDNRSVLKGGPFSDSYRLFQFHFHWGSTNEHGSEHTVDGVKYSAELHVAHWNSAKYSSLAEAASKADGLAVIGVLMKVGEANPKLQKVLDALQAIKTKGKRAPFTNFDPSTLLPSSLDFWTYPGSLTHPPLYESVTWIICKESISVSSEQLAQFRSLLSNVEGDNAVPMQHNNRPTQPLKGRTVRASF
Sequence of Carbonic anhydrase 5B, mitochondrial (Q9Y2D0 whole entry): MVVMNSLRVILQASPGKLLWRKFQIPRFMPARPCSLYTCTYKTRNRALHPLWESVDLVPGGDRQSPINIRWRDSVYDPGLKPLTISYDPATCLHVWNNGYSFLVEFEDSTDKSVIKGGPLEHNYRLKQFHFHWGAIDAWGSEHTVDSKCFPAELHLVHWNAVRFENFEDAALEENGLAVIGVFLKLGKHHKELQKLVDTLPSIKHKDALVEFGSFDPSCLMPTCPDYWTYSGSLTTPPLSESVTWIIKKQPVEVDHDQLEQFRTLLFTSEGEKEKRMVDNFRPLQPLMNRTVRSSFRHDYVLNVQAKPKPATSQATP

For `NS(=O)(=O)c1ccc2[nH]c(-c3cscn3)nc2c1`, the Ki (Carbonic anhydrase 1) was 0.0509 µM, the Ki (Carbonic anhydrase 13) was 4.85 µM and the Ki (Carbonic anhydrase 14) was 0.424 µM. The Ki [1] was 0.0409 µM, the Ki (Carbonic anhydrase 9) was 0.0064 µM and the Ki (Carbonic anhydrase 3) was 34.5 µM. It also gave a Ki (Carbonic anhydrase 6) of 0.025 µM, a Ki (Carbonic anhydrase 4) of 0.0489 µM and a Ki (Carbonic anhydrase 12) of 0.0178 µM.

— ChEMBL document CHEMBL1152885 (Bioorg Med Chem Lett, 2009)
